Measured values published in US20150175666A1, “PEPTIDES DERIVED FROM HIV GP41 FOR TREATING T-CELL MEDIATED PATHOLOGIES” (Yeda Research and Development Co. Ltd., priority 2012, published 2015).
Read-outs that look alike come from different tables or passages of the source. Square brackets hold non-standard residues; d marks the D form. Ends that are not written are not given here. rhodamine = not defined here

Key:
[1] = system: MOG35-55-specific murine line T cells (mMOG35-55 T-cells)
[2] = system: TCRα on antigen-stimulated mMOG35-55-specific line T cells; experiment: Co-localization of Rho-labeled peptides with TCRα (confocal microscopy); type: cell-based, murine; settings: activated T cells
Chain of TCRα on antigen-stimulated mMOG35-55-specific line T cells (P01849 whole entry): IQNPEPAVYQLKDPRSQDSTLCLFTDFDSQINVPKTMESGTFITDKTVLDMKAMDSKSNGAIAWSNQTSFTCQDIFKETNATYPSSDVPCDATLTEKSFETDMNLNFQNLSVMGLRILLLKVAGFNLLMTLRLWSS
Description: FITC excitation was set at 488 nm, with the laser set at 5% power and fluorescence was recorded from 502-525 nm. Rhodamine excitation was set at 559 nm, with the laser set at 1% power and the fluorescence data were collected above 580 nm. Each cell was imaged for TCRα staining (denoted in green) and for peptide staining (denoted in red). Using ImageJ, the images (n=20) were set to binary color and the two revised pictures were used to create a new picture of only what merged between them. The merged picture was divided by the revised red picture to give the percentage of co-localization.
Co-localization of the peptide with the TCR was assessed utilizing confocal microscopy (FIG. 5 D-E). Antigen-stimulated mMOG35-55-specific line T cells were probed with antibodies against TCRα followed by staining with secondary FITC-labeled antibodies (left column) and with the Rho-labeled peptide (SEQ ID NO: 3) (middle column). To evaluate the co-localization between the molecules, a merged image was produced (right column). […] As a control, AMP (SEQ ID NO: 13), a non-related antimicrobial peptide (Papo et al. J Biol Chem. 2005; 280(11):10378-10387), was labeled with rhodamine and its localization on T cells was detected.

TCR (Jurkat T cells) = experiment: Binding of Rho-labeled peptides to T-cell proteins (cross-linking SDS-PAGE, immunoprecipitation); set-up: species or system human; settings: for fluorescent bands of T-cell proteins bound to Rho-peptide (SDS-PAGE): 1 μM Rho-labeled peptide, formaldehyde cross-linked Jurkat lysate
Chain of TCR (Jurkat T cells) (P01848 whole entry): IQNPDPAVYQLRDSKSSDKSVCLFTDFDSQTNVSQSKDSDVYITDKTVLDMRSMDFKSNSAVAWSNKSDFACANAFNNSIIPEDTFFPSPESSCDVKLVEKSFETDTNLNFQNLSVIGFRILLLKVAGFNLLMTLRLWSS
Chain of TCR (Jurkat T cells) (P01850 whole entry, further chain): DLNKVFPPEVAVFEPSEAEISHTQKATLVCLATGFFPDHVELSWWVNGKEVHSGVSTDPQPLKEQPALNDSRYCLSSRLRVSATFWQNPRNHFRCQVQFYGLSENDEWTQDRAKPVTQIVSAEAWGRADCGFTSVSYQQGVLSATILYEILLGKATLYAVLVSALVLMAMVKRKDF
Description: Jurkat T cells (4×10^6) were incubated over night at 37° C. in the presence of 1 μM rhodamine-labeled peptide and lysed. The lysate was then incubated overnight with TCRα or GFP antibodies (2 μg) following 2 hours of incubation with protein G-plus Agarose beads (Santa Cruz Biotechnology Inc.). Next, the beads were washed with lysis buffer and boiled for 10 minutes; the protein supernatant was then run in a 12% SDS-PAGE. The presence of coimmunoprecipitated peptide was detected by the Typhoon 9400 variable mode imager.
Jurkat T cells (4×10^6) were incubated over night at 37° C. in the presence of 1 μM rhodamine-labeled pep6 (SEQ ID NO:3) and its mutant control peptide. Next, the cells were washed with PBS, crosslinked with 1% formaldehyde and after 10 minutes a 125 mM glycine solution was added to stop the reaction. Formaldehyde is a well known cross-linking agent used in the characterization of protein-protein interactions. The cells were lysed for 30 minutes on ice in a 300 μl lysis buffer followed by a sonication step. Insoluble material was removed by centrifugation at 3000×g for 4 min at 4° C. The proteins were resolved by 12% SDS-PAGE and proteins bound to the fluorescently labeled peptide were detected by the Typhoon 9400 variable mode imager (Amersham Biosciences). Excitation was set at 532 nm, and fluorescence emission was collected by a TAMRA filter (580 nm±30 nm) at 100 μm resolution and 600 volts. The protein loading amount was confirmed by Western blot to actin.
To investigate the interaction of the peptide with the TCR, 1 μM fluorescently labeled Rho-peptides were incubated with Jurkat T cells and then cross-linked with formaldehyde to maintain the interaction with their target proteins. The cross-linked T-cell lysate was resolved by SDS-PAGE and proteins bound to Rho-peptides were detected by the fluorescence of rhodamine (FIG. 5B). […] Western blot for actin was used to assure equal loading. […] Bound proteins were separated by SDS-PAGE and analyzed for the presence of the fluorescently-labeled peptides.

[3] = biological target: T1, core peptide of TMD from TCRα, CP (GLRILLLKV; SEQ ID NO: 14) (Mus musculus, UniProt P01849); experiment: Fluorescent measurements of NBD-labeled core peptide of TCRα TMD in LUV; type: binding; settings: PC:Chol LUV, sequential doses
T1 construct: termed CP (GLRILLLKV); made in house
Description: The fluorescence experiments were performed using NBD-labeled core peptides of TCRα (NBD-CP). Fluorescence spectra were obtained at room temperature, with excitation set at 467 nm (10 nm slit) and the emission scan at 500-600 nm (10 nm slits). In a typical experiment, the NBD-CP was first added from a stock solution in DMSO (final concentration of 0.1 μM and a maximum of 0.25% (v/v) DMSO) to a dispersion of PC:Chol LUV (200 μM) in PBS. This was followed by the addition of unlabeled HIV peptides in several sequential doses ranging from 2.5×10-3 μM to 0.4 μM. Fluorescence spectra were obtained before and after the addition of unlabeled HIV peptides. The fluorescence values were corrected by subtracting the corresponding blank (buffer with the same vesicle concentration).
The TCR complex's TMD helices mediate receptor activation through the interactions between basic and acidic residues. […] To investigate this possibility, we utilized NBD fluorescence, which is sensitive to the membrane surroundings; its emission intensity is increased via membrane insertion (Rapaport et al. Embo J. 1995; 14(22):5524-5531). […] Their initial fluorescence emission spectra were first measured in the presence of LUVs alone and then in the presence of several sequential doses of unlabeled peptide and its mutants (SEQ ID NO: 3, 9 and 10) (FIG. 5H).

[4] = system: T-cell lymphocytes derived from mice spleen cells; experiment: Binding of fluorescently labeled peptides to spleen-derived lymphocytes; type: cell-based
Excerpt: Further, the T-cell binding affinity of peptides having the amino acid sequence of […] (SEQ ID NO:2 and 11; all L- and all D-amino acids, respectively) was examined. […] Spleen derived B cell lymphocytes were used as a control.

[5] = system: encephalitogenic MOG35-55 reactive T cells (LNCs); experiment: Ex vivo recall response of lymph node cells from MOG35-55/CFA-immunized mice (proliferation, cytokine ELISA); type: in vivo, C57Bl/6J mice
Description: (§1) Mice were subcutaneously immunized with 150 μg MOG35-55 emulsified in complete Freund's adjuvant (CFA) containing 150 μg Mt H37Ra with or without 0.5 mg/kg HIV peptides. Ten days post immunization, draining lymph nodes were removed and cultured in triplicate in the presence or absence of antigen, as previously described. The cultures were incubated for 72 h at 37° C. [3H] Thymidine ([…]) was added for an additional 16 h of incubation and the cultures were then harvested and counted using a Beta Counter. Pro-inflammatory cytokine analysis of IFNγ, IL-12, and TNFα were determined by ELISA, 24 h after cell activation, according to standard protocols from PharMingen (San Diego, Calif.), as described previously
as §1, with “described. […]” for “described. The cultures were incubated for 72 h at 37° C. [3H]”, “described previously. […]” for “described previously”

[6] = MOG35-55 and APCs, peptides 2.5-20 μM

CC[C@H](C)[C@H](NC(=O)[C@H](CCC(N)=O)NC(=O)[C@H](CCC(=O)O)NC(=O)[C@H](CC(C)C)NC(=O)[C@H](CO)NC(=O)[C@H](CCCCN)NC(=O)[C@H](CC(N)=O)NC(=O)[C@H](N)CO)C(=O)N[C@@H](Cc1c[nH]c2ccccc12)C(=O)N[C@@H](CC(N)=O)C(=O)N[C@@H](Cc1c[nH]cn1)C(=O)N[C@H](C(=O)N[C@H](C(=O)N[C@@H](Cc1c[nH]c2ccccc12)C(=O)N[C@@H](CCSC)C(=O)N[C@@H](CCC(=O)O)C(=O)N[C@@H](Cc1c[nH]c2ccccc12)C(=O)N[C@H](CC(=O)O)C(N)=O)[C@@H](C)O)[C@@H](C)O [D-PEP 6, SNKSLEQIWNHTTWMEWD]
IC50 [1]: 3 µM

EQIWNHTTWMEWDREINN-NH2 [SHIFTED PEP 6, EQIWNHTTWMEWDREINN]
IC50 [1]: 10 µM | inhibition of T-cell proliferation (potency in words) [1, 6]: still exhibited potent activity

LQARILAVERYLKDQQL [ISU, LQARILAVERYLKDQQL, reference compound]
IC50 [1]: 15 µM

Rho-AMP: AMP (SEQ ID NO: 13) labeled with rhodamine (KLKLLKLLKLLKLLK; also: rhodamine label, site not given here)
co-localization with TCRα molecules [2]: found throughout the cell membrane

Rho-pep 6: rhodamine N-terminally labeled pep 6 (SEQ ID NO: 3) (rhodamine-SNKSLEQIWNHTTWMEWD-NH2; reading uncertain)
fluorescent bands of T-cell proteins bound to Rho-peptide (SDS-PAGE) (TCR (Jurkat T cells)): only one major fluorescent band | coimmunoprecipitation with TCRα antibodies (TCR (Jurkat T cells); Jurkat T cells, GFP antibody as control): coprecipitated with the TCR

SNKSLEQIGNHTTGMEGD [SEQ ID NO: 9]
fluorescent bands of T-cell proteins bound to Rho-peptide (SDS-PAGE) (TCR (Jurkat T cells)): neither observed | fluorescence emission maxima of NBD-CP upon addition of unlabeled peptide [3]: only a slight increase

SNKSLEQIWNHTTWMGWG [SEQ ID NO: 10]
fluorescence emission maxima of NBD-CP upon addition of unlabeled peptide [3]: only a slight increase

TTAVPWNASWSNKSLEQI-NH2 [PEP 1, TTAVPWNASWSNKSLEQI]
IC50 [1]: > 40 µM | inhibition of T-cell proliferation (potency in words) [1, 6]: not active

WNASWSNKSLEQIWNHT-NH2 [PEP 8, WNASWSNKSLEQIWNHT]
IC50 [1]: 15 µM

WNHTTWMEWD ([dW][dN][dH][dT][dT][dW][dM][dE][dW][dD]) [SEQ ID NO: 11]
binding to T-cell lymphocytes versus B cell lymphocytes [4]: preferably bind T-cell lymphocytes | ex vivo recall proliferative response of LNCs to MOG35-55 ([5]; 0.5 mg/kg peptide, day 10 post immunization): down-regulation

WNHTTWMEWD-NH2 [SHORT PEP 6, WNHTTWMEWD]
binding to T-cell lymphocytes versus B cell lymphocytes [4]: preferably bind T-cell lymphocytes | ex vivo recall proliferative response of LNCs to MOG35-55 ([5]; mouse, in vivo): down-regulation | IC50 [1]: 5 µM | inhibition of T-cell proliferation (potency in words) [1]: still exhibited potent activity
